The source of these data is patent US9187496B2 (priority 2009, dated 2015).

The subject of data set [1] is Huh-7 cells containing HCV Con1 subgenomic replicon (GS4.1 cells). Description: HCV replicon assay (NS5A ELISA). The class given is cell-based. As to conditions: Hepatitis C virus, Huh-7; GS4.1 cells, 72 hrs, NS5A ELISA; read-out: EC50. The protocol:
General Procedure: Huh-7 cells containing HCV Con1 subgenomic replicon (GS4.1 cells) were grown in Dulbecco's Modified Eagle Medium (DMEM) supplemented with 10% fetal bovine serum (FBS), 2 mM L-glutamine, 110 mg/L sodium pyruvate, 1× non-essential amino acids, 100 U/mL penicillin-streptomycin, and 0.5 mg/mL G418 (Invitrogen). For dose-response testing, the cells were seeded in 96-well plates at 7.5×10^3 cells/well in a volume of 50 μL, and incubated at 37° C./5% CO2. Three hours after plating, 50 μL of ten 2-fold serial dilutions of compounds (highest concentration, 75 μM) were added, and cell cultures were incubated at 37° C./5% CO2 in the presence of 0.5% DMSO. Alternatively, compounds were tested at a single concentration of 15 μM. In all cases, Huh-7 cells lacking the HCV replicon served as negative control. The cells were incubated in the presence of compounds for 72 hrs after which they were monitored for expression of the NS5A protein by enzyme-linked immunosorbent assay (ELISA). For this, the plates were then fixed for 1 min with acetone/methanol (1:1, v/v), washed twice with phosphate-buffered saline (PBS), 0.1% Tween 20, blocked for 1 hr at room temperature with TNE buffer containing 10% FBS and then incubated for 2 hr at 37° C. with the anti-NS5A mouse monoclonal antibody A-236 (ViroGen) diluted in the same buffer. After washing three times with PBS, 0.1% Tween 20, the cells were incubated 1 hr at 37° C. with anti-mouse immunoglobulin G-peroxidase conjugate in TNE, 10% FBS. After washing as described above, the reaction was developed with O-phenylenediamine (Zymed). The reaction was stopped after 30 min with 2 N H2SO4, and absorbance was read at 492 nm using Sunrise Tecan spectrophotometer. EC50 values were determined from the % inhibition versus concentration data using a sigmoidal non-linear regression analysis based on four parameters with Tecan Magellan software.
On the technique in general: A replicon is a self-replicating genome or part of one, used to study replication in cells.

A further data set deals with GS4.1 cells. Description: Cytotoxicity evaluation in GS4.1 cells (Cell Titer 96 AQueous One). The class given is cell-based, human. As to conditions: cellular viability. Here is the method:
For cytotoxicity evaluation, GS4.1 cells were treated with compounds as described above and cellular viability was monitored using the Cell Titer 96 AQueous One Solution Cell Proliferation Assay (Promega). CC50 values were determined from the % cytotoxicity versus concentration data with Tecan Magellan software as described above.

Data set [2] deals with HCV genotype 1b Conl strain subgenomic luciferase replicon (Zluc). The data set can be described thus: Luciferase replicon assay, genotype 1b. To be noted: Hepatitis C virus, 72 h, read-out: EC50 1b. The class given is cell-based. The protocol: (§1) The HCV luciferase replicon assay measures the ability of a test compound to inhibit HCV replication in cell culture after 3 days of treatment in a human hepatoma cell line (Huh-7) bearing a HCV replicon containing a luciferase-neomycin phosphotransferase fusion gene. The inhibition of HCV replication was measured by quantification of luciferase protein expression. Briefly, Huh-7 cells containing either the HCV genotype 1a H77 strain or genotype 1b Conl strain subgenomic luciferase replicon (H1a-luc or Zluc, respectively) were grown in DMEM containing glucose, L-glutamine and sodium pyruvate, 10% fetal bovine serum (FBS), 100 IU/mL penicillin, 100 μg/mL streptomycin, 2 mM GlutaMAX, non-essential amino acids and 0.25 (H1a-luc) or 0.5 (Zluc) mg/mL G418. GlutaMAX was obtained from Invitrogen, Corp.; all other media reagents were obtained from Mediatech, Inc. For dose-response testing, the cells were seeded in 96-well plates at 1×10^4 (H1a-luc) or 7.5×10^3 (Zluc) cells/well in a volume of 50 μL, and incubated at 37° C./5% CO2. Three hours after plating, 50 μL of ten 5-fold serial dilutions of compound were added, and cell cultures were incubated at 37° C./5% CO2 for 72 hours. In all cases, Huh-7 cells lacking the HCV replicon served as negative control. To assess luciferase expression, the media/compound was removed from the plates and ONE-glo Luciferase assay reagent (Promega) was added to each well. The assay plates were shaken for 3 minutes at room temperature and luciferase activity for each well was measured with a 1 sec read time on the Victor^3V multilabel counter using a 700 nm cut-off filter (Perkin Elmer). EC50 values were calculated from dose response curves from the resulting best-fit equations determined by Microsoft Excel and XLfit 4.1 software.

Data set [3] relates to HCV genotype 2a-specific NS5A gene within the 1b-replicon. Description: Luciferase replicon assay, NS5A-intergenotypic stable cell line genotype 2a. It is filed as cell-based. To be noted: Hepatitis C virus, read-out: EC50 2a.
Text: (§2) The nucleotide sequences of the NS5A region of genotype 2a (GenBank Accession #AB047639), genotype 3a (GenBank Accession #D17763), and genotype 4a (GenBank Accession#DQ418788) were synthesized by an outside vendor. The NS5A region of each of these genotypes included the first 11 amino acids of the protease recognition sequence of genotype 1b, as well as the last 10 amino acids of genotype 1b. The NS5A gene cassettes were excised with site specific restriction endonucleases and ligated into a ZS11-luciferase genotype 1b backbone (backbone contains the genotype 1b NS3 protease, NS4a, NS4b, and NS5b coding regions) with similarly cut restriction enzyme sites. Thus, the newly constructed plasmid contains a genotype 2a-, 3a- or 4a-specific NS5A gene within the 1b-replicon.
(§3) These new intergenotypic plasmids were used to establish stable cell lines. RNA was generated from the NS5A intergenotypic plasmids and used in conjunction with a lipofectin reagent to transfect a cured Huh7 cell line. Transfected cells were selected for with G418. After selection has occurred the stable cell lines were propagated, tested for luciferase activity, and RT-PCR with genotype specific primers (either 1a, 2a, 3a, or 4a). Stable cell lines containing the intergenotypic replicon were then fully sequenced and analysed for proper expression of NS3, NS5A and NS5B proteins.
(§4) Drug titration analysis was performed using the luciferase replicon assay described herein.
as §1

Data set [4] concerns HCV genotype 3a-specific NS5A gene within the 1b-replicon. Description: Luciferase replicon assay, NS5A-intergenotypic stable cell line genotype 3a. The class given is cell-based. As to conditions: Hepatitis C virus, read-out: EC50 3a.
Text: as §2, §3, §4, §1

The subject of data set [5] is HCV genotype 4a-specific NS5A gene within the 1b-replicon. The data set can be described thus: Luciferase replicon assay, NS5A-intergenotypic stable cell line genotype 4a. The class given is cell-based. As to conditions: Hepatitis C virus, read-out: EC50 4a.
Text: as §2, §3, §4, §1

Data set [6] in a line: Cytotoxicity evaluation in luciferase replicon cells (Cell Titer 96 AQueous One). The class given is cell-based, human. As to conditions: human; Table 1B, cellular viability. The protocol: For cytotoxicity evaluation, H1a-luc or Zluc cells were treated with compounds as described above and cellular viability was monitored using the Cell Titer 96 AQueous One Solution Cell Proliferation Assay (Promega). Plates were then read at 490 nm in a Victor^3V 1420 multilabel counter (Perkin Elmer) and CC50 concentrations were determined using Microsoft Excel and XLfit 4.1 software.

By EC50 is commonly meant the concentration that produces a half-maximal response. One may read the CC50 as the concentration giving 50% cytotoxicity. Read a high CC50 as better tolerance by the cells. Consider `COC(=O)N[C@H](C(=O)N1CCCC1c1ncc(-c2ccc(-c3cc4sc(Br)cc4s3)cc2)[nH]1)C(C)C` (stereo partly drawn) [A168], for which the EC50 in data set [1] lay within 0.01 to 0.1 µM. The CC50 in the data set with GS4.1 cells was in the range of 10 to 75 µM.
On to `COC(=O)N[C@H](C(=O)N1CCC[C@H]1c1ncc(-c2ccc(-c3cn4cc(NC(=O)[C@@H]5CCCN5C(=O)[C@H](NC(=O)OC(C)(C)C)c5ccccc5)nc4s3)cc2)[nH]1)C(C)C` [Compound A1, (S,S,S,R)-[1-(2-{5-[4-(6-{[1-(2-tert-butoxycarbonylamino-2-phenyl-acetyl)-pyrrolidine-2-carbonyl]-amino}imidazo[2,1-b]thiazol-2-yl)-phenyl]-1H-imidazol-2-yl}pyrrolidine-1-carbonyl)-2-methyl-propyl]-carbamic acid methyl ester], for which the EC50 in data set [1] is under 0.001 µM. The half-maximal cytotoxic concentration (CC50) with GS4.1 cells is over 75 µM.
For `COC(=O)N[C@H](C(=O)N1CCC[C@H]1C(=O)Nc1cn2cc(-c3ccc(-c4cnc([C@@H]5CCCN5C(=O)[C@@H](NC(=O)OC)C(C)C)[nH]4)cc3)sc2n1)C(C)C` [Compound A2, (S,S,S,S)-(1-{2-[2-(4-{2-[1-(2-methoxycarbonylamino-3-methyl-butyryl)-pyrrolidin-2-yl]-3H-imidazol-4-yl}-phenyl)-imidazo[2,1-b]thiazol-6-ylcarbamoyl]-pyrrolidine-1-carbonyl}-2-methyl-propyl)-carbamic acid methyl ester], in that order: 0.001 to 0.01 µM and 10 to 75 µM.
For `CC(C)(C)OC(=O)N[C@@H](C(=O)N1CCOC[C@H]1C(=O)Nc1cn2cc(-c3ccccc3)sc2n1)c1ccccc1` [Compound A22], in that order: over 0.1 µM and over 75 µM.
`CC(C)(C)OC(=O)N[C@@H](C(=O)N1CCC[C@H]1C(=O)Nc1cn2cc(C#Cc3ccccc3)sc2n1)c1ccccc1` [Compound A23]: the concentration giving a half-maximal response (EC50) in data set [1] is over 0.1 µM. For the same compound, in the data set with GS4.1 cells, the cytotoxic concentration (CC50) lay in the range of 10 to 75 µM.
Regarding `COC(=O)N[C@H](C(=O)N1CCC[C@H]1c1ncc(-c2ccc(-c3cn4cc(NC(=O)[C@@H]5CCCN5C(=O)[C@H](NC(=O)OC)c5ccccc5)nc4s3)cc2)[nH]1)C(C)C` [Compound A30, (S,S,S,R)-[1-(2-{5-[4-(6-{[1-(2-methoxycarbonylamino-2-phenyl-acetyl)-pyrrolidin-2-carbonyl]-amino}-imidazo[2,1-b]thiazol-2-yl)-phenyl]-1H-imidazol-2-yl}-pyrrolidine-1-carbonyl)-2-methyl-propyl]-carbamic acid methyl ester], the concentration giving a half-maximal response (EC50) in data set [1] is under 0.001 µM. The same compound gave a CC50 in the data set on GS4.1 cells of over 75 µM.
For `CCOC(=O)N[C@@H](C(=O)N1CCC[C@H]1C(=O)Nc1cn2cc(-c3ccc(-c4cnc([C@@H]5CCCN5C(=O)[C@@H](NC(=O)OC)C(C)C)[nH]4)cc3)sc2n1)c1ccccc1` [Compound A55, (S,S,S,R)-[1-(2-{5-[4-(6-{[1-(2-ethoxycarbonylamino-2-phenylacetyl)-pyrrolidine-2-carbonyl]-amino}imidazo[2,1-b]thiazol-2-yl)-phenyl]-1H-imidazol-2-yl}pyrrolidine-1-carbonyl)-2-methyl-propyl]-carbamic acid methyl ester], in that order: under 0.001 µM and 10 to 75 µM.
For `COC(=O)N[C@H](C(=O)N1CCC[C@H]1c1ncc(-c2csc3c(-c4cnc([C@@H]5CCCN5C(=O)[C@@H](NC(=O)OC)C(C)C)[nH]4)csc23)[nH]1)C(C)C` [Compound A82, ((S)-1-{(S)-2-[5-(6-{2-[(S)-1-((S)-2-methoxycarbonylamino-3-methyl-butyryl)-pyrrolidin-2-yl]-3H-imidazol-4-yl}-thieno[3,2-b]thiophen-3-yl)-1H-imidazol-2-yl]-pyrrolidine-1-carbonyl}-2-methyl-propyl)-carbamic acid methyl ester], in that order: under 0.001 µM and 10 to 75 µM.
With `COC(=O)N[C@H](C(=O)N1CCCC1c1nc(-c2cc3sc(-c4cnc([C@@H]5CCCN5C(=O)[C@@H](NC(=O)OC)C(C)C)[nH]4)cc3s2)c[nH]1)C(C)C` (stereo partly drawn) [Compound A101], the 50% effective concentration (EC50) was under 0.0001 µM in data set [2], 0.001 to 0.01 µM in data set [3], 0.001 to 0.01 µM in data set [4] and 0.001 to 0.01 µM in data set [5]. In addition, the CC50 at 72 h in data set [6] is over 75 µM.
In the case of `COC(=O)N[C@H](C(=O)N1CCCC1c1nc(-c2ccc(-c3c(C(=O)OC)[nH]c4c(-c5ccc(-c6cnc(C7CCCN7C(=O)[C@@H](NC(=O)OC)C(C)C)[nH]6)cc5)csc34)cc2)c[nH]1)C(C)C` (stereo partly drawn) [Compound A163], the EC50 in data set [1] was under 0.001 µM. Also, the CC50 in the data set with GS4.1 cells was over 75 µM.
Consider `COC(=O)N[C@H](C(=O)N1CCC[C@H]1c1nc2cc(-c3csc4c(-c5ccc(-c6cnc([C@@H]7CCCN7C(=O)[C@H](NC(=O)OC)c7ccccc7)[nH]6)cc5)csc34)ccc2[nH]1)C(C)C` [Compound A169, [(S)-1-((S)-2-{6-[6-(4-{(S)-2-[1-((R)-2-methoxycarbonylamino-2-phenyl-acetyl)-pyrrolidin-2-yl]-3H-imidazol-4-yl}-phenyl)-thieno[3,2-b]thiophen-3-yl]-1H-benzoimidazol-2-yl}-pyrrolidine-1-carbonyl)-2-methyl-propyl]-carbamic acid methyl ester], for which the concentration for a half-maximal effect (EC50) in data set [2], in data set [3], in data set [4] and in data set [5] was under 0.0001 µM throughout. Also, in data set [6], the CC50 at 72 h was over 75 µM.
Regarding `COC(=O)N[C@H](C(=O)N1CCCC1c1ncc(-c2ccc(-n3ccc4c(-c5cnc(C6CCCN6C(=O)[C@@H](NC(=O)OC)C(C)C)[nH]5)csc43)c(Cl)c2)[nH]1)C(C)C` (stereo partly drawn) [Compound A213], the EC50 in data set [2] is under 0.0001 µM. This compound also registered a half-maximal cytotoxic concentration (CC50) at 72 h in data set [6] of 10 to 75 µM.
